Key:
obstructed kidney (UUO) = assay: UUO model, delayed administration of suramin at day 3 of obstruction; format: in vivo, mouse
Protocol: Animals and the UUO Model. The UUO model used was described above. The abdominal cavity was exposed via a midline incision and the left ureter was isolated and ligated. Sham-operated animal received the same surgical procedures but without ureter ligation. To establish the time course of renal fibrogenesis in this model, four groups of mice (n=5) were killed at days 1, 3, 7, and 14, respectively, after left ureter ligation. […] Control mice were injected with the equal volume of vehicle (0.9% saline). At the end of the experiments, mice were killed and the kidneys were removed. One part of the kidneys was fixed in 10% phosphate-buffered formalin for histological studies. Another part was snap-frozen in liquid nitrogen and stored at −80° C. for protein extractions.

NRK-49F cells = assay: Cleaved PARP and cleaved caspase-3 (apoptosis hallmarks), immunoblot; format: cell-based, rat; settings: 100 μM suramin, 36 h
Protocol: Cell Culture and Treatments. NRK-49F cells were cultured in Dulbecco's modified eagle's medium (DMEM) (Sigma-Aldrich, St. Louis, Mo.) containing 5% fetal bovine serum (FBS), 0.5% penicillin and streptomycin in an atmosphere of 5% CO2 and 95% air at 37° C. […] Immunoblot Analysis. Immunoblot analysis of NRK-49F cells and tissue samples were conducted as described previously. The densitometry analysis of immunoblot results was conducted by using NIH Image software (National Institutes of Health, Bethesda, Md.).

[1] = 20 mg/kg at day 3, kidney at day 10

## Cc1ccc(C(=O)Nc2ccc(S(=O)(=O)O)c3cc(S(=O)(=O)O)cc(S(=O)(=O)O)c23)cc1NC(=O)c1cccc(NC(=O)Nc2cccc(C(=O)Nc3cc(C(=O)Nc4ccc(S(=O)(=O)O)c5cc(S(=O)(=O)O)cc(S(=O)(=O)O)c45)ccc3C)c2)c1 [Suramin]
Obstructed kidney (UUO); [1]
  EGFR phosphorylation: significant reduction
  PDGFR phosphorylation: significant reduction
  Smad3 phosphorylation: largely blocked
  expression of total EGFR: not affected
  expression of total PDGFR: not affected
  phosphorylation of ERK1/2: not further increased
  phosphorylation of STAT3: not further increased
  total protein level of ERK1/2: did not alter
  total protein level of STAT3: did not alter
Obstructed kidney (UUO); 20 mg/kg at day 3, both 7- and 14-day treatment groups
  α-SMA expression: reduced
Obstructed kidney (UUO); 20 mg/kg i.p. single dose at day 3, kidney at day 10
  Masson trichrome-positive areas: reduced on day 10 to a level similar to that in the kidney at 3 days of obstruction
NRK-49F cells
  cleavage of caspase-3: did not induce cleavage
  cleavage of poly (ADP-ribose) polymerase (PARP): did not induce cleavage
